Data reported in patent US6358885B1, “Substituted phenylheterocyclic herbicides” (Mississippi State University, priority 1992, dated 2002).

What was measured:
Assay in all cases: Test B preemergence/postemergence greenhouse plant response rating 0 to 10
sorghum = assay type: in vivo, Sorghum bicolor; settings: 0 to 10 scale
Summary of the method: (§1)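 Both application timings were run together: seeds got compound preemergence, and established seedlings (two to eighteen cm) got it postemergence. Non-phytotoxic solvent carried the chemical. Ratings are visual, versus controls, at twelve to sixteen days.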

lambsquarters = assay type: in vivo, Chenopodium album; settings: 0 to 10 scale
Summary of the method: as §1

wild oat = assay type: in vivo, Avena fatua; settings: 0 to 10 scale
Summary of the method: as §1

cotton = assay type: in vivo, Gossypium hirsutum; settings: for Plant response rating, Cotton: 0 to 10 scale
Summary of the method: as §1

wheat = assay type: in vivo, Triticum aestivum; settings: 0 to 10 scale
Summary of the method: as §1

sugar beet = assay type: in vivo, Beta vulgaris; settings: 0 to 10 scale
Summary of the method: as §1

blackgrass = assay type: in vivo, Alopecurus myosuroides; settings: for Plant response rating, Blackgrass: 0 to 10 scale
Summary of the method: as §1

bedstraw = assay type: in vivo, Galium aparine; settings: for Plant response rating, Bedstraw: 0 to 10 scale
Summary of the method: as §1

barley = assay type: in vivo, Hordeum vulgare; settings: for Plant response rating, Barley: 0 to 10 scale
Summary of the method: as §1

Structure (SMILES)	Plant response rating, Sorghum (sorghum; POSTEMERGENCE, Rate 50 g/ha)	Plant response rating, Sorghum (sorghum; POSTEMERGENCE, Rate 200 g/ha)	Plant response rating, Sorghum (sorghum; PREEMERGENCE, Rate 50 g/ha)	Plant response rating, Sorghum (sorghum; Rate 200 g/ha, PREEMERGENCE)	Plant response rating, Lambsquarter (lambsquarters; POSTEMERGENCE, Rate 50 g/ha)	Plant response rating, Lambsquarter (lambsquarters; POSTEMERGENCE, Rate 200 g/ha)	Plant response rating, Lambsquarter (lambsquarters; PREEMERGENCE, Rate 50 g/ha)	Plant response rating, Lambsquarter (lambsquarters; Rate 200 g/ha, PREEMERGENCE)	Plant response rating, Wild oat (wild oat; POSTEMERGENCE, Rate 50 g/ha)	Plant response rating, Wild oat (wild oat; POSTEMERGENCE, Rate 200 g/ha)	Plant response rating, Wild oat (wild oat; Rate 200 g/ha, PREEMERGENCE)	Plant response rating (0 to 10 scale), Cotton (cotton; POSTEMERGENCE, Rate 50 g/ha)	Plant response rating, Cotton (cotton; POSTEMERGENCE, Rate 200 g/ha)	Plant response rating, Cotton (cotton; PREEMERGENCE, Rate 50 g/ha)	Plant response rating, Cotton (cotton; Rate 200 g/ha, PREEMERGENCE)	Plant response rating, Wheat (wheat; POSTEMERGENCE, Rate 50 g/ha)	Plant response rating, Wheat (wheat; POSTEMERGENCE, Rate 200 g/ha)	Plant response rating, Wheat (wheat; PREEMERGENCE, Rate 50 g/ha)	Plant response rating, Wheat (wheat; Rate 200 g/ha, PREEMERGENCE)	Plant response rating, Sugar beet (sugar beet; POSTEMERGENCE, Rate 50 g/ha)	other results
CCCOc1cc(-c2nn3c(c2Cl)CCCC3)c(F)cc1Cl [Compound 23]	4	6	0	2	10	10	10	10	3	5	6	10	10	5	5	2	6	0	2	10	Plant response rating, Sugar beet (sugar beet; POSTEMERGENCE, Rate 200 g/ha): 10; Plant response rating, Sugar beet (sugar beet; PREEMERGENCE, Rate 50 g/ha): 9; Plant response rating, Sugar beet (sugar beet; Rate 200 g/ha, PREEMERGENCE): 10; Plant response rating (0 to 10 scale), Blackgrass (blackgrass; POSTEMERGENCE, Rate 50 g/ha): 6; Plant response rating, Blackgrass (blackgrass; POSTEMERGENCE, Rate 200 g/ha): 6; Plant response rating, Blackgrass (blackgrass; PREEMERGENCE, Rate 50 g/ha): 6; Plant response rating, Blackgrass (blackgrass; Rate 200 g/ha, PREEMERGENCE): 7; Plant response rating (0 to 10 scale), Bedstraw (bedstraw; POSTEMERGENCE, Rate 50 g/ha): 7; Plant response rating, Bedstraw (bedstraw; POSTEMERGENCE, Rate 200 g/ha): 9; Plant response rating, Bedstraw (bedstraw; PREEMERGENCE, Rate 50 g/ha): 5; Plant response rating, Bedstraw (bedstraw; Rate 200 g/ha, PREEMERGENCE): 5; Plant response rating (0 to 10 scale), Barley (barley; POSTEMERGENCE, Rate 50 g/ha): 3; Plant response rating, Barley (barley; POSTEMERGENCE, Rate 200 g/ha): 3; Plant response rating, Barley (barley; PREEMERGENCE, Rate 50 g/ha): 0; Plant response rating, Barley (barley; Rate 200 g/ha, PREEMERGENCE): 0
Fc1cc(Cl)c(OC2CCCC2)cc1-c1nn2c(c1Cl)CCCC2 [Compound 24]	5	6	0	1	9	10	9	10	3	4	2	10	10	3	8	3	4	0	1	10	Plant response rating, Sugar beet (sugar beet; POSTEMERGENCE, Rate 200 g/ha): 10; Plant response rating, Sugar beet (sugar beet; PREEMERGENCE, Rate 50 g/ha): 9; Plant response rating, Sugar beet (sugar beet; Rate 200 g/ha, PREEMERGENCE): 9; Plant response rating (0 to 10 scale), Blackgrass (blackgrass; POSTEMERGENCE, Rate 50 g/ha): 2; Plant response rating, Blackgrass (blackgrass; POSTEMERGENCE, Rate 200 g/ha): 6; Plant response rating, Blackgrass (blackgrass; PREEMERGENCE, Rate 50 g/ha): 2; Plant response rating, Blackgrass (blackgrass; Rate 200 g/ha, PREEMERGENCE): 8; Plant response rating (0 to 10 scale), Bedstraw (bedstraw; POSTEMERGENCE, Rate 50 g/ha): 6; Plant response rating, Bedstraw (bedstraw; POSTEMERGENCE, Rate 200 g/ha): 7; Plant response rating, Bedstraw (bedstraw; PREEMERGENCE, Rate 50 g/ha): 3; Plant response rating, Bedstraw (bedstraw; Rate 200 g/ha, PREEMERGENCE): 5; Plant response rating (0 to 10 scale), Barley (barley; POSTEMERGENCE, Rate 50 g/ha): 4; Plant response rating, Barley (barley; POSTEMERGENCE, Rate 200 g/ha): 4; Plant response rating, Barley (barley; PREEMERGENCE, Rate 50 g/ha): 0; Plant response rating, Barley (barley; Rate 200 g/ha, PREEMERGENCE): 0
CCS(=O)(=O)Oc1cc(-c2nn3c(c2Cl)CCCC3)c(F)cc1Cl [Compound 25]	4	5	0	2	9	10	9	10	3	4	4	10	10	4	5	3	4	0	2	10	Plant response rating, Sugar beet (sugar beet; POSTEMERGENCE, Rate 200 g/ha): 10; Plant response rating, Sugar beet (sugar beet; PREEMERGENCE, Rate 50 g/ha): 7; Plant response rating, Sugar beet (sugar beet; Rate 200 g/ha, PREEMERGENCE): 10; Plant response rating (0 to 10 scale), Blackgrass (blackgrass; POSTEMERGENCE, Rate 50 g/ha): 2; Plant response rating, Blackgrass (blackgrass; POSTEMERGENCE, Rate 200 g/ha): 2; Plant response rating, Blackgrass (blackgrass; PREEMERGENCE, Rate 50 g/ha): 0; Plant response rating, Blackgrass (blackgrass; Rate 200 g/ha, PREEMERGENCE): 3; Plant response rating (0 to 10 scale), Bedstraw (bedstraw; POSTEMERGENCE, Rate 50 g/ha): 9; Plant response rating, Bedstraw (bedstraw; POSTEMERGENCE, Rate 200 g/ha): 9; Plant response rating, Bedstraw (bedstraw; PREEMERGENCE, Rate 50 g/ha): 5; Plant response rating, Bedstraw (bedstraw; Rate 200 g/ha, PREEMERGENCE): 10; Plant response rating (0 to 10 scale), Barley (barley; POSTEMERGENCE, Rate 50 g/ha): 4; Plant response rating, Barley (barley; POSTEMERGENCE, Rate 200 g/ha): 5; Plant response rating, Barley (barley; PREEMERGENCE, Rate 50 g/ha): 0; Plant response rating, Barley (barley; Rate 200 g/ha, PREEMERGENCE): 0
